Literature values, collected in patent publication US20230157949A1, “ORAL FILM OF HIV DRUGS” (LAURUS LABS LIMITED, priority 2020, published 2023).

Conditions: in combination with low doses of ritonavir

increase of AUC: greater than 100 fold
SMILES: Cc1cccc(C)c1OCC(=O)N[C@@H](Cc1ccccc1)[C@@H](O)C[C@H](Cc1ccccc1)NC(=O)[C@H](C(C)C)N1CCCNC1=O [lopinavir, Lopinavir]
